Source: patent publication US4528290A, “Stimulating dopamine D-1 receptors” (Eli Lilly and Company, priority 1984, dated 1985)
Each block holds one compound with its values, some of them ahead of it.

Test system: dopamine D-1 receptors (cyclic AMP efflux, striatal tissue)
Experiment: tissue or blood
Method: A second, particularly sensitive indicator of D-1 agonist activity is the determination of the cyclic AMP efflux in tissue slices using a procedure based on Stoof and Kebabian (loc. cit). In this procedure, striatal tissue is dissected from rat brains and chopped into 0.3 mm.×[…]. fragments. The tissue fragments are suspended in the appropriate buffer system (Earl's balanced salt solution, for example) and the suspension is continuously aerated with 95:5 O2 /CO2 while being maintained at 37° C. Just prior to use, the tissue fragments are transferred to fresh media to which is added bovine serum albumin (2.5 mg./ml.) and 3-isobutyl-1-methylxanthine (1 millimolar) to block degradation of cyclic AMP. The tissue fragments are incubated in buffer without drugs and are then transferred to the same media with added drug. Aliquots of incubation media, with and without drugs, are assayed for cyclic AMP concentration by a specific radioimmunoassay. The effect of the drug or drugs on efflux is expressed as a percentage of the resting efflux. The following medium was employed:
Sulpiride is known to be an antagonist on pituitary D-2 receptors. Addition of sulpiride to a test system, such as that described above, blocks any D-2 effect of a drug in reducing cyclic AMP production.

- effect of sulpiride on the lowering of the SKF38393 cyclic AMP increase by the trans-(-)-enantiomer (sulpiride 10^-6 M): suppressed
SMILES: CCN1CCCC1CNC(=O)c1cc(S(N)(=O)=O)ccc1OC (stereo not shown) [sulpiride]
- effect of sulpiride on the increase in cyclic AMP efflux caused by A (sulpiride 10^-6 M with A 5 × 10^-7 M): no effect on the increase in cyclic AMP efflux

SMILES: Oc1cc2c(cc1O)C(c1ccccc1)CNCC2 (stereo not shown) [SKF38393, 1,2,3,4-tetrahydro-7,8-dihydroxy-1-phenyl-1H-3-benzazepine]
- activation at 1 µM (Rattus norvegicus, read-out: increase of cyclic AMP production): 145%

SMILES: CCCN1CCC[C@@H]2Cc3[nH]ncc3C[C@H]21 [4aR, 8aR enantiomer, 4aR,8aR-5-n-propyl-4,4a,5,6,7,8,8a,9-octahydro-1H(and 2H)-pyrazolo[4,3-g]-quinoline]
- cyclic AMP production increase by SKF38393 after addition of the compound (compound at 0.5×10^-6 M added to SKF38393 10^-6 molar (145% alone)): 42%
